Laboratory results from patent US20040253319A1, “Pharmaceutical compositions and method for alleviating side-effects of estrogen replacement therapy” (priority 2003, published 2004).

Legend:
Type in all cases: cell-based
[1] = tested on: human breast cancer cells (MCF-7 cells); assay: [3H]thymidine incorporation in human breast cancer cells (MCF-7); conditions: estrogen 20-500 nM; FIG. 4
[2] = tested on: human smooth muscle cells; assay: Smooth muscle cell invasion assay (Matrigel); conditions: estrogen 100 nM; FIG. 2
Protocol: Elevated capacity of smooth muscle cells and cancer cells to invade extracellular matrix is directly related to the initiation of the atherosclerotic plaque formation and to metastasis formation, respectively. Cultured cell invasiveness is estimated according to the number of cells penetrating through a porous plastic membrane covered with natural extracellular matrix ([…], Beckton-Dickinson). Cultured cells were grown in 75 cm^2 flasks in culture medium containing 10% fetal bovine serum (FBS) to near complete confluency of 37° C. For the last 48 hours of incubation de novo synthesized cellular DNA was metabolically labelled by adding 1 microCi/mL [^3H]thymidine. Labelled cells were detached from plastic surface by treating cell layer with 0.025% trypsin in PBS. Cultured cells were seeded on the top surface of the bottom plastic membrane of the inserts placed in the wells of a 24 well plastic plate in 0.5 mL of culture medium containing 10% fetal bovine serum (FBS) at concentration 40,000 cell/mL. Insert bottom membrane has controlled size pores of 8 micron in diameter and is covered with the layer of Matrigel. […] Number of cells penetrated to the other side of the porous membrane was assessed according to amount of lower membrane surface-bound radioactivity as measured with scintillation counter (LS 8000, Beckman-Coulter).

[3] = tested on: VEGF release in human breast cancer cells (MCF-7 cells); assay: VEGF release in human breast cancer cells (cytokine expression assay, ELISA); conditions: estrogen 10-100 nM; FIG. 6
From the text: Measurement of VEGF (Vascular Endothelial Growth Factor) in Cancer Cells Rationale: New vascularization formation (i.e., neo-vascularization) within a tumor bed is essential to the tumor growth. Without the new blood vessel formulation, most tumors can only grow to approximately 1 mm in diameter because the supply of nutrient and oxygen to the growing tumor cells depends on the blood vessels around the tumor. A tumor has the ability to attract new blood vessel formation (neo-vascularization) by releasing a protein known as vascular endothelial growth factor (VEGF). It is desirable to inhibit the VEGF expression in cancer cells so as to prevent neo-vascularization and inhibit tumor growth. (See, Vascular Endothelial Cell Growth Factor (VEGF), an Emerging Target for Cancer Chemotherapy, Shinkaruk, et al., Current Medicinal Chemistry and Anti-Cancer Agents, 2003, Vol. 3, pages 95-117).
(§1) The level of cellular vascular endothelium growth factor (VEGF) production is an indicator of a stimulation of neo-vascularization processes. A rate of cytokine synthesis and secretion into medium by culture cells was measured with a commercially available immunochemical assay kit. […] The level of cytokines secreted into cell culture medium was measured using ELISA kits according to manufacturer's protocol (R&D Systems).

[4] = tested on: human smooth muscle cells; assay: [3H]thymidine incorporation growth rate assay in human smooth muscle cells; conditions: estrogen 50-450 nM; FIG. 1
Protocol: Rationale: As described, the excessive growth rate of smooth muscle cells and cancer cells is directly related to accelerated atherosclerotic process and malignant tumor growth, respectively. Cultured cell growth rate is estimated according to de novo DNA synthesis assessed (i.e., [^3H]Thymidine Incorporation) according to the amount of Tritium-labeled metabolic precursor incorporated into cellular DNA during incubation period.
Human smooth muscle cells (Aortic-Cambrex Corporation, San Diego, Calif., Cat. No. CC-2571) were seeded at a cell concentration of 40,000 cells/ml (0.5 mL) per well in 24-well plates containing an appropriate growth medium (DMEM plus 10% FBS). After three hours incubation, cells were washed and fresh culture media containing tested compositions at indicated amounts were added Cells were allowed to culture for an additional 3-4 days. At the end of the culture, an aliquot of [^3H]thymidine (DuPont-NEN, Boston, Mass.) was added at a final concentration of 1 microCi/mL ([…]). After 24 hours, cells were washed in ice-cold Dulbecco's PBS, fixed in cold 10% TCA (trichloroacetic acid) for at least 0.5 hour, and incubated with 0.5 mL 0.1N sodium hydroxide for 2 hours at 37° C. Cell bound [^3H]thymidine was extracted in 0.1 N NaOH and measured in a liquid scintillation counter (LS 8000, Beckman Coulter). […]

[5] = tested on: interleukin-6 release in human smooth muscle cells; assay: Interleukin-6 release in human smooth muscle cells; conditions: estrogen 100 nM; FIG. 3
From the text: Rationale: Cytokine expression and its involvement in inflammatory responses are known. It has been recently accepted that vascular and smooth muscle pathology manifested in cardiovascular diseases is one of the inflammatory responses during atherosclerosis and hypertension. Interleukin-6 is one of the key cytokines which trigger the inflammation process. Over-expression of interleukin-6 in smooth muscle cells under pathological stimuli may further amplify the inflammatory lesions. The present compositions are designed to inhibit over-expression of cytokine production in smooth muscle cells (in particular, the interleukin-6). By inhibiting the expression of interleukin-6 in smooth muscle cells, the present compositions are believed to be a remedy alleviating the side-effects of estrogen replacement therapy in post-menopausal women.
as §1, with “kit. Cultured cells were seeded in 48 well plates in 0.5 mL of medium containing 10% FBS at concentration 40,000 cell/mL.” for “kit.”

estrogen
[3H]thymidine incorporation in human breast cancer cells (MCF-7) [1]: induce an increase
human smooth muscle cell invasion [2]: induce an increase
VEGF release in human breast cancer cells (MCF-7) [3]: induce an increased
[3H]thymidine incorporation in human smooth muscle cells [4]: induce an increase
interleukin-6 release in human smooth muscle cells [5]: induce an increased
